Values quoted from earlier work in patent publication US20250091981A1, “PROCESS FOR THE PURIFICATION OF 5-AMINOSALICYLIC ACID” (CHEMI S.P.A., priority 2022, published 2025).

Tests used:
[1] = established in the guidelines
[2] = value reported in the literature

CCN(CC)N=O [NDEA, N,N-diethyl-nitrosamine]
maximum daily intake limit [1]: 26.5 ng

Nc1ccc(O)c(C(=O)O)c1 [Example 5-ASA, 5-Amino salicylic acid]
isoelectric pH [2]: 3.7
